According to PMC9820592, “Novel Chiral Ru(II) Complexes as Potential c-myc G-quadruplex DNA Stabilizers Inducing DNA Damage to Suppress Triple-Negative Breast Cancer Progression” (International Journal of Molecular Sciences, 2022):

What was measured:
MDA-MB-231 cells [1] = assay: MTT assay, MDA-MB-231 cells; assay type: cell-based, human; conditions: 72 h, read-out: Inhibitory Effect (IC50/μM) MDA-MB-231
Experimental: (§1) Liver cancer HepG2 cells, lung cancer A549 cells, breast cancer MCF-7 and MDA-MB-231 cells, human nasopharyngeal carcinoma CNE-1 cells, and human immortalized keratinocyte HaCaT cells were seeded in 96-well plates (5 × 10^3 cells per well) and cultured at 37 °C and 5% CO2 for 24 h. Cells were treated with different concentrations of the complexes (0, 1.5625, 3.125, 6.25, 12.5, 25, 50, and 100 µM) for 72 h. After adding 20 µL MTT (5 mg/mL) solution to each well, the cells were incubated for 4 h, and then 150 µL DMSO was added to each well. The optical density of each well was detected by a microplate reader at a wavelength of 570 nm. The cell survival rate (%) = A(experimental group)/A(control group) × 100%, and the IC50 value was analyzed and calculated based on the survival rate.

MCF-7 cells = assay: MTT assay, MCF-7 cells; assay type: cell-based, human; conditions: 72 h, read-out: Inhibitory Effect (IC50/μM) MCF-7
Experimental: as §1

HepG2 cells = assay: MTT assay, HepG2 cells; assay type: cell-based, human; conditions: 72 h, read-out: Inhibitory Effect (IC50/μM) HepG2
Experimental: as §1

A549 cells = assay: MTT assay, A549 cells; assay type: cell-based, human; conditions: 72 h, read-out: Inhibitory Effect (IC50/μM) A549
Experimental: as §1

CNE-1 cells = assay: MTT assay, CNE-1 cells; assay type: cell-based, human; conditions: 72 h, read-out: Inhibitory Effect (IC50/μM) CNE-1
Experimental: as §1

HaCaT cells = assay: MTT assay, normal HaCaT keratinocytes; assay type: cell-based; conditions: 72 h, normal human keratinocytes, read-out: Inhibitory Effect (IC50/μM) HaCaT
Experimental: as §1

MDA-MB-231 cells [2] = assay: EdU proliferation assay; assay type: cell-based, human; conditions: control 50.2%
Experimental: The inhibitory effect of the chiral DPPZ-based Ru(II) complexes (Λ/Δ−1−3) was assessed against different human tumor cancer cells, such as breast cancer MCF-7, MDA-MB-231, lung cancer A549, liver carcinoma HepG2, nasopharyngeal carcinoma CNE-1, and human normal keratinocyte HaCaT cells, by MTT assay. […] Moreover, the inhibition of MDA-MB-231 cell proliferation by Δ−3 was detected by using an EdU (5-ethynyl-2′-deoxyuridine) staining kit, and EdU was incorporated into newly synthesized DNA in the sample cells. The red fluorescent azide is small enough to diffuse freely through native tissues and DNA, and it covalently cross-links to the EdU in a “click” chemistry reaction.

MDA-MB-231 cells [3] = assay: ICP detection of Ru content in cells; assay type: cell-based, human; conditions: 24 h, control 0.4
Experimental: MDA-MB-231 cells were seeded in 10 cm cell culture dishes. After cell adherence, the cells were treated with the drug (0, 2.5, 5, and 10 μM) for 24 h. After 24 h, the cells were washed with PBS three times and collected by trypsin. The number of collected cells was counted by a cell counter. Then, the cells were digested in 1 mL HNO3 solution by microwave digestion at 120 °C for 3 min, and 1 mL of this solution was transferred to a 5 mL volumetric flask, diluted with distilled water to volume, and mixed. The Ru content of these solutions was analyzed by an ICP optical emission spectrometer (NCS, Plasma 2000). All measurements were repeated three times.

c-myc G-quadruplex DNA [4] = assay: FRET melting assay; assay type: binding, human; conditions: free DNA Tm 59.5 °C
Experimental: Carboxy fluorescein (FAM) and 6-carboxytetramethyl rhodamine (TAMRA) double fluorescent-labeled c-myc G4 DNA (5′−FAM-TGAGGGTGGGAGGGGTAA-TAMRA−3′) were heated to 95 °C in Tris-HCl-KCl buffer (containing 10 mM Tris-HCl, 100 mM KCl, pH 7.4) for 5 min and slowly cooled to room temperature. To ds26, double-stranded DNA ([…]) is a competitive binder, research Λ/Δ−3 with c-myc G4 selectivity binding ability of DNA. A Bio-Radiq5 real-time PCR detection system was used to measure the fluorescence melting curve. Approximately 1 μM (5 μL) FPU22T was mixed with a series of 5 μL compound solutions of different concentrations, and 15 μLTris-HCl-KCl buffer was added to the PCR 8 tube to obtain a total volume of 25 μL. A real-time fluorescence quantitative PCR instrument was used, and incubation was performed at 30 °C for 30 min. The program temperature range was set to 30–95 °C at a temperature interval of 1 °C, and recording was performed after balancing for 30 s to detect the fluorescence value of FAM. The conditions of the reaction system were similar to those of the FRET melting point test except that different concentrations of ds26 were added.

c-myc G-quadruplex DNA [5] = assay: PCR-stop assay; assay type: biochemical, human; conditions: Taq polymerase
Experimental: In this study, c-myc G4 DNA and its reverse complementary sequence c-myc rev were heated to 95 °C for 5 min, allowed to cool to room temperature, and incubated at 4 °C overnight. The system was supplemented with dNTPs and Taq polymerase for PCR amplification; heated at 95 °C for 3 min, 94 °C for 30 s, and 58 °C for 30 s, with an extension at 72 °C for 30 s (30 cycles); and analyzed by 15% nondenatured polyacrylamide gel electrophoresis and silver staining.

Row | Molecule | IC50 (MDA-MB-231 cells [1]) [µM] | IC50 (MCF-7 cells) [µM] | IC50 (HepG2 cells) [µM] | IC50 (A549 cells) [µM] | IC50 (CNE-1 cells) [µM] | IC50 (HaCaT cells) [µM] | proliferation rate (EdU) (MDA-MB-231 cells [2]; 10 μM) [%] | proliferation rate (EdU) (MDA-MB-231 cells [2]; 20 μM) [%] | proliferation rate (EdU) (MDA-MB-231 cells [2]; 40 μM) [%] | Ru content in cells (MDA-MB-231 cells [3]; 2.5 μM) [ng/mL per 1 × 10^4 cells] | Ru content in cells (MDA-MB-231 cells [3]; 5 μM) [ng/mL per 1 × 10^4 cells] | Ru content in cells (MDA-MB-231 cells [3]; 10 μM) [ng/mL per 1 × 10^4 cells] | ΔTm (c-myc G-quadruplex DNA [4]; complex 0.5 μM) | ΔTm (c-myc G-quadruplex DNA [4]; complex 1.0 μM) [°C] | minimum concentration necessary for effective inhibition (PCR products) (c-myc G-quadruplex DNA [5]) [µM]
1 | Δ-[Ru(bpy)2(BrDPPZ)](ClO4)2 [Δ−2] | 94.5 ± 9.1 | > 100 | > 100 | 89.9 ± 11.3 | > 100 | > 100 | – | – | – | – | – | – | – | – | –
2 | Δ-[Ru(bpy)2(DPPZ)](ClO4)2 [Δ−1] | > 100 | > 100 | > 100 | > 100 | > 100 | > 100 | – | – | – | – | – | – | – | – | –
3 | Λ-[Ru(bpy)2(3-NBEDPPZ)](ClO4)2 [Λ−3] | 53.5 ± 1.7 | – | 74.8 ± 2.4 | 55.4 ± 2.4 | > 100 | > 100 | 34.0 | 27.5 | 11.3 | 0.56 | 1.44 | 2.47 | approximately 2.2 °C | ~4.9 | 5
4 | N.N.[Cl][Pt][Cl] [Cis-platin, cisplatin, reference compound] | 25.9 ± 1.9 | 14.27 ± 0.07 | 12.7 ± 0.7 | 9.9 ± 0.25 | – | 7.1 ± 0.5 | – | – | – | – | – | – | – | – | –
5 | Λ-[Ru(bpy)2(DPPZ)](ClO4)2 [Λ−1] | 60.8 ± 7.41 | > 100 | > 100 | > 100 | > 100 | > 100 | – | – | – | – | – | – | – | – | –
6 | Λ-[Ru(bpy)2(BrDPPZ)](ClO4)2 [Λ−2] | 92.1 ± 12.1 | > 100 | > 100 | 91.5 ± 10.8 | > 100 | > 100 | – | – | – | – | – | – | – | – | –
